What was measured:
[1] = tested on: T. cruzi; settings: mouse, in vivo; cited from earlier work
[2] = tested on: Vaccinia Virus; test: microbe, parasite or virus in culture; assay type: cell-based; set-up: SI50 / SI90: unit not given beside the values
[3] = in vivo; settings: BALB/c, mouse, ip
[4] = in vitro; settings: guinea pig, microsomes
[5] = tested on: Respiratory synactial virus; test: organism not typed; assay type: cell-based; set-up: SI50: unit not given beside the values
[6] = tested on: Herpes Simplex Virus 1; test: microbe, parasite or virus in culture; assay type: cell-based; set-up: SI50 / SI90: unit not given beside the values
[7] = tested on: Hepatitis B virus; test: microbe, parasite or virus in culture; assay type: cell-based; set-up: SI50 / SI90: unit not given beside the values
[8] = tested on: Zika virus; test: microbe, parasite or virus in culture; assay type: cell-based; set-up: SI50: unit not given beside the values
[9] = in vivo; settings: both, BALB/c, mouse, ip
[10] = target: CYP3A4 (Homo sapiens, UniProt P08684); test: biochemical
Sequence of CYP3A4 (P08684 whole entry): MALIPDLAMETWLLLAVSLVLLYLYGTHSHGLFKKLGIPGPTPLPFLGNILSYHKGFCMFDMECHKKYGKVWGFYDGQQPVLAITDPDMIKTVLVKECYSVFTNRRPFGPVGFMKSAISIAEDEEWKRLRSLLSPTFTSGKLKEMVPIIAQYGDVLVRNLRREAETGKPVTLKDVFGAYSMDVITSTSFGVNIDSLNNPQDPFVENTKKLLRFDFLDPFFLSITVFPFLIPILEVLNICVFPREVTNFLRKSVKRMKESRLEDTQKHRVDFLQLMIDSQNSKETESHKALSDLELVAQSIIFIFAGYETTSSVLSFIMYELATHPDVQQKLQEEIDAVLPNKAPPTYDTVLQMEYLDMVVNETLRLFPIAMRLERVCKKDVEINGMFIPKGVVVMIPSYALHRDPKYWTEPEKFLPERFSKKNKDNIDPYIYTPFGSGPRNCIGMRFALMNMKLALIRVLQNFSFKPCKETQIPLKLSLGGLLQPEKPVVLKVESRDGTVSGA

[11] = Hepatitis B virus, HepG2 2.2.15

## COc1ccc2nc3cc(Cl)ccc3c(Nc3cc(CN4CCCC4)c(O)c(CN4CCCC4)c3)c2n1 [Pyronaridine, 4-[(7-Chloro-2-methoxybenzo[b][1, 5]naphthyridin-10-yl)amino]-2,6-bis(1-pyrrolidinylmethyl)phenol phosphate (1:4)]
[1]
  efficacy rate: 85%
[2]
  SI50: <3
  SI90: <3
[2]; Orthopoxvirus vaccinia, HFF
  EC50: > 1.2 µM
  EC90: > 1.2 µM
[3]; female, 5 mg/kg
  AUC(0-t): 0.257 µg·h/mL
  Cmax: 0.054 µg/mL
  Tmax: 4.98 min
[3]; female, 25 mg/kg
  AUC(0-t): 0.956 µg·h/mL
  Cmax: 0.16 µg/mL
[3]; male, 5 mg/kg
  AUC(0-t): 0.192 µg·h/mL
  Cmax: 0.0444 µg/mL
[3]; male, 25 mg/kg
  AUC(0-t): 0.713 µg·h/mL
  Cmax: 0.115 µg/mL
[3]; male, 75 mg/kg
  AUC(0-inf): 33.9 µg·h/mL
  AUC(0-t): 33 µg·h/mL
  Cmax: 0.982 µg/mL
  half-life: 146 h
[4]
  half-life: 44.4 min
  microsomal CLint: 15.6 µL/min/mg
[5]
  SI50: 0
[5]; MA104
  EC50: > 7.5 µM
[6]
  SI50: <1
  SI90: <1
[6]; Human alphaherpesvirus 1, HFF
  EC50: > 6 µM
  EC90: > 6 µM
[7]
  SI50: <1
  SI90: <1
[7]; [11]
  EC50: 4.52 µM
  EC90: > 100 µM
[8]
  SI50: 1
[8]; Zika virus, Vero 76
  EC50: 3.2 µM
[9]
  MTD: 100 mg/kg
[10]
  IC50: 42.9 µM
